# Measurements taken from paper PMC6272155, “Plasmin Regulation through Allosteric, Sulfated, Small Molecules” (Molecules, 2015).
# Entries after “also recorded” stand apart in the source; their conditions may differ. Where two headings read alike, the source gives them in different places.
# How the values were obtained:
# Assay type in all cases: biochemical
# human Lys-plasmin = molecular target: T1, human Lys-plasmin (Homo sapiens, UniProt P00747); test: Direct inhibition of human Lys-plasmin, chromogenic substrate (Spectrozyme PL) hydrolysis assay; conditions: for IC50: human plasmin 20 nM, 50 mM Tris-HCl pH 7.4, 150 mM NaCl, 37 °C, Spectrozyme PL; for inhibition at 400 µM: 400 μM inhibitor, n ≥ 2, read-out: plasmin inhibition in initial screening
# T1 construct: purchased Haematologic Technologies (Essex Junction, VT, USA)
# Procedure: Important to emphasize here that the potency of NSGM-based inhibitors was evaluated by measuring their IC50's (X-axis), whereas the efficacy was assessed by measuring the overall change in residual plasmin activity (%) (ΔY = YM − Y0) (Y-axis).
# Direct inhibition of human Lys-plasmin was measured using a chromogenic substrate hydrolysis assay on a microplate reader (FlexStation III, Molecular Devices, Sunnyvale, CA, USA), as reported earlier. Briefly, to each well of a 96-well microplate containing 85 µL of 50 mM Tris-HCl buffer, pH 7.4, containing 150 mM NaCl, 0.1% PEG8000, and 0.02% Tween80 at 37 °C was added 5 µL potential NSGM-based inhibitor (20–100 mM aqueous solution) (or vehicle alone) and 5 µL enzyme. The final concentration of the enzyme was 20 nM. After 5 min incubation, 5 µL of 1 mM Spectrozyme PL was rapidly added and the residual enzyme activity was measured from the initial rate of increase in A405. Relative residual enzyme activity (Y) as a function of the concentration of sulfated molecule was fitted using logistic equation 1 to obtain the potency (IC50), efficacy (ΔY) and Hill slope (HS) of inhibition. In this equation, YM and Y0 are the maximal and minimal values of Y: (1) Y = Y0+YM−Y0/1+10^(log[Inhibitor]0 − logIC50) ×HS […]
# In this equation, Y is the ratio of residual plasmin activity in the presence of inhibitor to that in its absence (fractional residual activity). YM and Y0 are the maximum and minimum possible values of the fractional residual proteinase activity. The difference between these two values is used to evaluate the inhibitor’s efficacy to reduce the residual enzyme activity under the assay condition.
# Direct inhibition of human plasmin by sulfated small molecules. Direct inhibition of plasmin was measured using a chromogenic substrate hydrolysis assay on a microplate reader (FlexStation III, Molecular Devices), as reported earlier. Briefly, to each well of a 96-well microplate containing […]
# Tween80 at 37 °C was added 5 µL potential inhibitor (or vehicle alone) and 5 µL enzyme. The final concentration of the enzyme was 20 nM. After 5 min incubation, 5 µL of 1 mM Spectrozyme PL was rapidly added and the residual enzyme activity was measured from the initial rate of increase in A405.
# Relative residual enzyme activity (Y, activity in the presence of inhibitor to that in its absence) as a function of the concentration of SPGG derivative was fitted using logistic Equation (1) to obtain the potency (IC50), efficacy (ΔY) and Hill slope (HS) of inhibition. In this equation, YM and Y0 are the maximal and minimal values of Y.
# human plasmin = molecular target: T2, human plasmin (Homo sapiens, UniProt P00747); test: Michaelis-Menten kinetics of Spectrozyme PL hydrolysis by human plasmin in presence of inhibitor
# T2 construct: purchased Haematologic Technologies (Essex Junction, VT, USA)
# Procedure: The initial rate of Spectrozyme PL hydrolysis by human plasmin (20 nM) was monitored from the linear increase in absorbance at 405 nm corresponding to less than 10% consumption of the substrate. […] The data were fitted by Michaelis-Menten Equation (2) to determine KM,app and VMAX: (2) V= VMAX [S]/KM+ [S] […]
# Michaelis-Menten kinetics of Spectrozyme PL hydrolysis by plasmin in the presence of […]
# The initial rate of Spectrozyme PL hydrolysis by human plasmin (20 nM) was monitored from the linear increase in absorbance at 405 nm corresponding to less than 10% consumption of the substrate. The initial rate was measured as a function of various concentrations of the substrate (0–400 μM) […]
# 50 mM Tris-HCl buffer, pH 7.4, 150 mM NaCl at 37 °C. The data were fitted by Michaelis-Menten Equation (2) to determine KM,app and VMAX. […]
# thrombin = thrombin (Homo sapiens, UniProt P00734); test: Direct inhibition of thrombin, chromogenic substrate (Spectrozyme TH) hydrolysis assay; conditions: pH 7.4, 37 °C; read-out: IC50 against thrombin
# Procedure: (§1) The rationale behind targeting an allosteric site on plasmin was to achieve inhibition specificity over the closely related serine proteases. In contrast to active sites, allosteric sites are not as highly conserved and therefore present a powerful opportunity for discovering a selective modulator of enzyme function. […] Using appropriate small peptide-based chromogenic substrates, the fractional residual thrombin and factor Xa activities were measured under the physiological condition of pH 7.4 and 37 °C.
# (§2) Briefly, to each well of a 96-well microplate containing 185 μL of 20–50 mM Tris-HCl buffer, pH 7.4, containing 100–150 mM NaCl, 0.1% PEG8000 and 0.02% Tween80 at either 25 °C (thrombin) or 37 °C (factor Xa) was added 5 μL of 10–20 mM inhibitor (or vehicle) and 5 μL of the enzyme. The final concentrations of the enzymes were 6 nM (thrombin) and 1.09 nM (factor Xa). After 10 min incubation, 5 μL 1.0 mM Spectrozyme TH or 2.5 mM Spectrozyme FXa, was rapidly added and the residual enzyme activity was measured from the initial rate of increase in A405. Relative residual enzyme activity (Y, activity in the presence of inhibitor to that in its absence) as a function of the concentration of inhibitor was measured.
# factor Xa = factor Xa (Homo sapiens, UniProt P00742); test: Direct inhibition of factor Xa, chromogenic substrate (Spectrozyme FXa) hydrolysis assay
# Procedure: as §1, §2
# [1] = logistic fit, pH 7.4, 37 °C, read-out: ΔY% (efficacy, YM − Y0)
# [2] = pH 7.4, logistic fit, pH 7.4, 37 °C, read-out: ΔY% (efficacy, YM − Y0)
# T1 sequence (P00747 581-810 limits assumed): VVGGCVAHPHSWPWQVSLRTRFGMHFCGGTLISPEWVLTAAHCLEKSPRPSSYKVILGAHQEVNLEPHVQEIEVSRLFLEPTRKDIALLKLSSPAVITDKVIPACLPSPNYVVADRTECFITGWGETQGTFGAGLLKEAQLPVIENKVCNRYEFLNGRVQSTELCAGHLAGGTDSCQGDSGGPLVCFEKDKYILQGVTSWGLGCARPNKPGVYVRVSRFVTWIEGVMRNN
# T1 sequence (P00747 97-580 partner limits assumed): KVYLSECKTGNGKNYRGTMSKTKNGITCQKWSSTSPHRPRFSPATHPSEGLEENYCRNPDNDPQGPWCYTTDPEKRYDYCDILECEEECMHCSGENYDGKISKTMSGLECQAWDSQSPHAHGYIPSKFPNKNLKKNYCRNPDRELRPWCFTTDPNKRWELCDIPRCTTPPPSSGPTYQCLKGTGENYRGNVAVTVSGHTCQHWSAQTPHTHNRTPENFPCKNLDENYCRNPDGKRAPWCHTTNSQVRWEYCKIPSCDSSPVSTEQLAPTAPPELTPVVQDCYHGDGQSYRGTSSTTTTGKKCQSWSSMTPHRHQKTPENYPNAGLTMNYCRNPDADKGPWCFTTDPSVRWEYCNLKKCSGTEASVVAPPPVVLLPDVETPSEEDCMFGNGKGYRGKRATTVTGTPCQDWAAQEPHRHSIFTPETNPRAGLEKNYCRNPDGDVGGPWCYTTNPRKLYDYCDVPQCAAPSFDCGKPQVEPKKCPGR
# T2 sequence (P00747 581-810 limits assumed): as the sequence (P00747 581-810 limits assumed) above
# T2 sequence (P00747 97-580 partner limits assumed): as the sequence (P00747 97-580 partner limits assumed) above
# factor Xa, sequence (P00742 235-488 limits assumed): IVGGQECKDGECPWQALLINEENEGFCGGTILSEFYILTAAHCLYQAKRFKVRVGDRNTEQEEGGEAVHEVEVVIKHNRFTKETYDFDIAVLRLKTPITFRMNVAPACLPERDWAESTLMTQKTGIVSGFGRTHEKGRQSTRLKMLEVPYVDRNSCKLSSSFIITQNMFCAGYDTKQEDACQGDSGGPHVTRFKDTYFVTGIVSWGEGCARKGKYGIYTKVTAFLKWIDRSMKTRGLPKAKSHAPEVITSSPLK
# factor Xa, sequence (P00742 41-179 partner limits assumed): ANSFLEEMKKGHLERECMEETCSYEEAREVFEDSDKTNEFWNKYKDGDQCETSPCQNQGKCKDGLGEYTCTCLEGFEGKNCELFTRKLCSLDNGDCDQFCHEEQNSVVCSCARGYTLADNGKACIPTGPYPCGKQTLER
smiles,measurement,setting,value
O=c1c2ccccc2nc(-c2ccc(OS(=O)(=O)O)cc2)n1CCCCCCCCCCn1cc(Cn2c(-c3ccc(OS(=O)(=O)O)cc3)nc3ccccc3c2=O)nn1 [compound 45],IC50,human Lys-plasmin,98 ± 9 µM
same,HS (Hill slope),"human Lys-plasmin; logistic fit, pH 7.4, 37 °C",1.7 ± 0.6
same,Emax,human Lys-plasmin; [1],94 ± 6%
O=c1c(OS(=O)(=O)O)c(-c2ccc(OS(=O)(=O)O)c(OS(=O)(=O)O)c2)oc2cc(OS(=O)(=O)O)cc(OCCCCCOc3cc(OS(=O)(=O)O)cc4oc(-c5ccc(OS(=O)(=O)O)c(OS(=O)(=O)O)c5)c(OS(=O)(=O)O)c(=O)c34)c12 [compound 53],"loss in potency relative to 4-atom linker flavonoid homodimers (52, 54)",human Lys-plasmin,3 fold
same,inhibition at 400 µM,"human Lys-plasmin; pH 7.4, 37 °C",> 90%
same,IC50,human Lys-plasmin,209 ± 25 µM
same,HS (Hill slope),"human Lys-plasmin; logistic fit, pH 7.4, 37 °C",0.6 ± 0.1
same,Emax,human Lys-plasmin; [2],105 ± 8%
"O=c1c(OS(=O)(=O)O)c(-c2ccc(OS(=O)(=O)O)c(OS(=O)(=O)O)c2)oc2cc(OS(=O)(=O)O)cc(OCc3cn(CCCCCCCCn4c(-c5ccc(OS(=O)(=O)O)cc5)nc5ccccc5c4=O)nn3)c12 [compound 32, 3-(8-(4-((2-(3,4-O,O-Disulfonato-phenyl)-3,7-O,O-disulfonato-4-oxo-4H-chromen-5-yloxy)methyl)-1H-1,2,3-triazol-1-yl)octyl)-2-(4-O-sulfonato-phenyl)quinazolin-4(3H)-one]",IC50,human Lys-plasmin,45 ± 2 µM
same,HS (Hill slope),"human Lys-plasmin; logistic fit, pH 7.4, 37 °C",2.3 ± 0.7
same,Emax,"human Lys-plasmin; pH 7.4, read-out: ΔY% (efficacy, YM − Y0), logistic fit, pH 7.4, 37 °C",105%
same,mechanism of plasmin inhibition,"human plasmin; Michaelis-Menten kinetics, pH 7.4, 37 °C",noncompetitive inhibition; also recorded: allosteric inhibitor
same,decrease in VMAX,human plasmin; inhibitor 0 to 250 μM,5.5 fold
same,VMAX of Spectrozyme PL hydrolysis,human plasmin; inhibitor 1 μM,65.8 ± 2.1 mAU/min
same,VMAX of Spectrozyme PL hydrolysis,human plasmin; inhibitor 10 μM,56.4 ± 2.3 mAU/min
same,VMAX of Spectrozyme PL hydrolysis,human plasmin; inhibitor 50 μM,41.4 ± 1.6 mAU/min
same,VMAX of Spectrozyme PL hydrolysis,human plasmin; inhibitor 150 μM,20.7 ± 1.1 mAU/min
same,VMAX of Spectrozyme PL hydrolysis,human plasmin; inhibitor 250 μM,12.5 ± 1.3 mAU/min
same,IC50,thrombin,> 500 µM
same,selectivity index for plasmin over factor Xa,factor Xa,about 5 fold
same,IC50,"factor Xa; pH 7.4, 37 °C, read-out: IC50 against factor Xa",> 250 µM
O=c1c2ccccc2nc(-c2ccc(OS(=O)(=O)O)cc2)n1Cc1cn(CCn2cc(Cn3c(-c4ccc(OS(=O)(=O)O)cc4)nc4ccccc4c3=O)nn2)nn1 [compound 41],IC50,human Lys-plasmin,125 ± 9 µM
same,HS (Hill slope),"human Lys-plasmin; logistic fit, pH 7.4, 37 °C",4.0 ± 1.8
same,"ΔY% (efficacy, YM − Y0)","human Lys-plasmin; logistic fit, pH 7.4, 37 °C",54 ± 5%
same,Emax,human Lys-plasmin; [2],54%
O=c1c2ccccc2nc(-c2ccc(OS(=O)(=O)O)cc2)n1CCCCCCCn1cc(Cn2c(-c3ccc(OS(=O)(=O)O)cc3)nc3ccccc3c2=O)nn1 [compound 42],IC50,human Lys-plasmin,161 ± 24 µM
same,HS (Hill slope),"human Lys-plasmin; logistic fit, pH 7.4, 37 °C",1.0 ± 0.2
same,Emax,human Lys-plasmin; [1],92 ± 4%
same,"decrease in inhibition potency relative to 31 and 32, respectively",human Lys-plasmin; tetrasulfated flavonoid replaced by para-sulfated quinazolinone,3–4 fold
O=c1c2ccccc2nc(-c2ccc(OS(=O)(=O)O)cc2)n1CCCCCCCCCCCn1cc(Cn2c(-c3ccc(OS(=O)(=O)O)cc3)nc3ccccc3c2=O)nn1 [compound 46],IC50,human Lys-plasmin,111 ± 7 µM
same,HS (Hill slope),"human Lys-plasmin; logistic fit, pH 7.4, 37 °C",2.4 ± 0.4
same,Emax,human Lys-plasmin; [1],95 ± 2%
O=c1c(OS(=O)(=O)O)c(-c2ccc(OS(=O)(=O)O)c(OS(=O)(=O)O)c2)oc2cc(OS(=O)(=O)O)cc(OCCOc3cc(OS(=O)(=O)O)cc4oc(-c5ccc(OS(=O)(=O)O)c(OS(=O)(=O)O)c5)c(OS(=O)(=O)O)c(=O)c34)c12 [compound 50],"loss in potency relative to 4-atom linker flavonoid homodimers (52, 54)",human Lys-plasmin,2 fold
same,inhibition at 400 µM,"human Lys-plasmin; pH 7.4, 37 °C",> 90%
same,IC50,human Lys-plasmin,185 ± 68 µM
same,HS (Hill slope),"human Lys-plasmin; logistic fit, pH 7.4, 37 °C",1.4 ± 0.2
same,"ΔY% (efficacy, YM − Y0)","human Lys-plasmin; logistic fit, pH 7.4, 37 °C",38 ± 15%
same,Emax,human Lys-plasmin; [2],38%
